Results reported in patent publication US12377104B1, “Methods for treating a fatty liver disease” (Madrigal Pharmaceuticals, Inc., priority 2024, dated 2025).

Tested on: adults with biopsy-confirmed NASH
Assay: MAESTRO-NASH: liver enzymes, imaging and biomarkers (MRI-PDFF, CAP, VCTE, MRE, liver and spleen volume, ELF)
Type: in vivo, human
[1] = 100 mg, wk 48, baseline ALT ≥30 U per liter
[2] = 100 mg, F1B, responder analysis
[3] = 100 mg, week 52, baseline ELF score ≥9.8
[4] = 100 mg, week 52, baseline PIIINP ≥9 ng/mL
[5] = 100 mg, week 52, baseline TIMP-I ≥240 ng/ml
[6] = 100 mg, week 52, baseline hyaluronic acid ≥50 ng/ml

`CC(C)c1cc(Oc2c(Cl)cc(-n3nc(C#N)c(=O)[nH]c3=O)cc2Cl)n[nH]c1=O` [Resmetirom, 2-(3,5-dichloro-4-((5-isopropyl-6-oxo-1,6-dihydropyridazin-3-yl)oxy)phenyl)-3,5-dioxo-2,3,4,5-tetrahydro-1,2,4-triazine-6-carbonitrile] was tested, and the “Hyaluronic acid, LS mean CFB difference from PBO” value (80 mg, week 52, baseline hyaluronic acid ≥50 ng/ml) was 0.58 µg/L, the “Alanine aminotransferase level, difference from placebo” value (100 mg, wk 48) was −26.3 percentage points and the “Aspartate aminotransferase level, difference from placebo” value (100 mg, wk 48) was −25.4 percentage points. For the same molecule, the “γ-Glutamyltransferase level, difference from placebo” value (100 mg, wk 48) was −35.2 percentage points, the “Alanine aminotransferase level, least-squares mean percent change from baseline” value [1] was −33.2 ± 3.9% and the “Aspartate aminotransferase level, least-squares mean percent change from baseline” value [1] was −28.3 ± 3.9%. The “γ-Glutamyltransferase level, least-squares mean percent change from baseline” value [1] was −31.9 ± 6.3%, the “MRI-PDFF, difference from placebo” value (100 mg, wk 52) was −37.9 percentage points and the “MRI-PDFF, least-squares mean percent change from baseline” value (100 mg, wk 52) was −46.6 ± 2.8%. For the same molecule, the “MRE ≥19% increase from BL, % of patients” value [2] was “(20.0) %”, the “MRE ≥19% increase from BL, no. of patients” value [2] was 1 and the “MRE ≥19% reduction from BL, no. of patients” value [2] was 0. For the same molecule, the “VCTE/LSM improving >25%, % of patients” value [2] was “(70.0) %”, the “VCTE/LSM improving >25%, no. of patients” value [2] was 7 and the “VCTE/LSM improving ≥30%, % of patients” value [2] was “(60.0) %”. The “VCTE/LSM improving ≥30%, no. of patients” value [2] was 6, the “VCTE/LSM worsening ≥25%, no. of patients” value [2] was 0 and the “VCTE/LSM worsening ≥30%, no. of patients” value [2] was 0. For the same molecule, the “FibroScan VCTE/LSM, LS mean CFB” value (100 mg, F1B, week 52) was −3.7 kPa, the “FibroScan VCTE/LSM, LS mean CFB difference from PBO” value (100 mg, F1B, week 52) was −3.1 kPa and the “MRE, LS mean % CFB” value (100 mg, F1B, week 52) was 2.4%. The “MRE, LS mean % CFB difference from PBO” value (100 mg, F1B, week 52) was −5.1%, the “MRE ≥19% increase from BL, no. of patients” value (100 mg, F2, responder analysis) was 0 and the “MRE ≥19% reduction from BL, % of patients” value (100 mg, F2, responder analysis) was “(22.7) %”. The “MRE ≥19% reduction from BL, no. of patients” value (100 mg, F2, responder analysis) was 5, the “VCTE/LSM improving ≥25%, % of patients” value (100 mg, F2, responder analysis) was “(50.0) %” and the “VCTE/LSM improving ≥25%, no. of patients” value (100 mg, F2, responder analysis) was 38. For the same molecule, the “VCTE/LSM improving ≥30%, % of patients” value (100 mg, F2, responder analysis) was “(40.8) %”, the “VCTE/LSM improving ≥30%, no. of patients” value (100 mg, F2, responder analysis) was 31 and the “VCTE/LSM worsening ≥25%, % of patients” value (100 mg, F2, responder analysis) was “(10.5) %”. For the same molecule, the “VCTE/LSM worsening ≥25%, no. of patients” value (100 mg, F2, responder analysis) was 8, the “VCTE/LSM worsening ≥30%, % of patients” value (100 mg, F2, responder analysis) was “(6.6) %” and the “VCTE/LSM worsening ≥30%, no. of patients” value (100 mg, F2, responder analysis) was 5. The “FibroScan VCTE/LSM, LS mean CFB” value (100 mg, F2, week 52) was −2.4 kPa, the “FibroScan VCTE/LSM, LS mean CFB difference from PBO” value (100 mg, F2, week 52) was −1.2 kPa and the “MRE, LS mean % CFB” value (100 mg, F2, week 52) was 1.1%. The “MRE, LS mean % CFB difference from PBO” value (100 mg, F2, week 52) was 0.99%, the “MRE ≥19% increase from BL, % of patients” value (100 mg, F3, responder analysis) was “(8.1) %” and the “MRE ≥19% increase from BL, no. of patients” value (100 mg, F3, responder analysis) was 7. For the same molecule, the “MRE ≥19% reduction from BL, % of patients” value (100 mg, F3, responder analysis) was “(31.4) %”, the “MRE ≥19% reduction from BL, no. of patients” value (100 mg, F3, responder analysis) was 27 and the “VCTE/LSM improving ≥25%, % of patients” value (100 mg, F3, responder analysis) was “(47.9) %”. The “VCTE/LSM improving ≥25%, no. of patients” value (100 mg, F3, responder analysis) was 80, the “VCTE/LSM improving ≥30%, % of patients” value (100 mg, F3, responder analysis) was “(38.9) %” and the “VCTE/LSM improving ≥30%, no. of patients” value (100 mg, F3, responder analysis) was 65. The “VCTE/LSM worsening ≥25%, % of patients” value (100 mg, F3, responder analysis) was “(10.8) %”, the “VCTE/LSM worsening ≥25%, no. of patients” value (100 mg, F3, responder analysis) was 18 and the “VCTE/LSM worsening ≥30%, % of patients” value (100 mg, F3, responder analysis) was “(10.2) %”. The “VCTE/LSM worsening ≥30%, no. of patients” value (100 mg, F3, responder analysis) was 17, the “FibroScan VCTE/LSM, LS mean CFB” value (100 mg, F3, week 52) was −3.2 kPa and the “FibroScan VCTE/LSM, LS mean CFB difference from PBO” value (100 mg, F3, week 52) was −2.1 kPa. The “MRE, LS mean % CFB” value (100 mg, F3, week 52) was 5.2%, the “MRE, LS mean % CFB difference from PBO” value (100 mg, F3, week 52) was −4.8% and the Liver volume, LS mean % CFB (100 mg, week 16) was -21.4%. The “Liver volume, LS mean % CFB difference from PBO” value (100 mg, week 16) was −21.1%, the “MRI-PDFF % fat fraction, LS mean % CFB” value (100 mg, week 16) was 42.1% and the “MRI-PDFF % fat fraction, LS mean % CFB difference from PBO” value (100 mg, week 16) was −35.7%. The “Spleen volume, LS mean % CFB” value (100 mg, week 16) was 3.6%, the “Spleen volume, LS mean % CFB difference from PBO” value (100 mg, week 16) was −5.0% and the “ALT, LS mean % CFB” value (100 mg, week 48) was −33.2%. The “ALT, LS mean % CFB difference from PBO” value (100 mg, week 48) was −26.3%, the “ALT, LS mean CFB” value (100 mg, week 48) was 24.8 U/L and the “AST, LS mean % CFB” value (100 mg, week 48) was 28.3%. The “AST, LS mean % CFB difference from PBO” value (100 mg, week 48) was −25.4%, the “AST, LS mean CFB” value (100 mg, week 48) was 15.8 U/L and the GGT, LS mean % CFB (100 mg, week 48) was -31.9%. The “GGT, LS mean % CFB difference from PBO” value (100 mg, week 48) was −35.2%, the GGT, LS mean CFB (100 mg, week 48) was -32.7 U/L and the “Adiponectin, LS mean CFB” value (100 mg, week 52) was 1.1 µg/mL. The “Adiponectin, LS mean CFB difference from PBO” value (100 mg, week 52) was 1.3 µg/mL, the CK-18, LS mean CFB (100 mg, week 52) was -310 U/L and the “CK-18, LS mean CFB difference from PBO” value (100 mg, week 52) was −165.7 U/L. The “FibroScan CAP, LS mean CFB” value (100 mg, week 52) was −41.3 dB/m, the “FibroScan CAP, LS mean CFB difference from PBO” value (100 mg, week 52) was −26.9 dB/m and the Liver volume, LS mean % CFB (100 mg, week 52) was -25.8%. The “Liver volume, LS mean % CFB difference from PBO” value (100 mg, week 52) was 24.8%, the “MRI-PDFF % fat fraction, LS mean % CFB” value (100 mg, week 52) was 46.6% and the “MRI-PDFF % fat fraction, LS mean % CFB difference from PBO” value (100 mg, week 52) was −37.9%. For the same molecule, the “Spleen volume, LS mean % CFB” value (100 mg, week 52) was −6.1%, the “Spleen volume, LS mean % CFB difference from PBO” value (100 mg, week 52) was −9.3% and the “Enhanced liver fibrosis score, LS mean CFB” value [3] was −0.35. The “Enhanced liver fibrosis score, LS mean CFB difference from PBO” value [3] was −0.24, the PIIINP, LS mean % CFB [4] was -10.3% and the “PIIINP, LS mean % CFB difference from PBO” value [4] was −9.3%. The “PIIINP, LS mean CFB” value [4] was -2.1 ng/mL, the “PIIINP, LS mean CFB difference from PBO” value [4] was -1.4 ng/mL and the “TIMP-I, LS mean % CFB” value [5] was −10.1%. For the same molecule, the “TIMP-I, LS mean % CFB difference from PBO” value [5] was −6.5%, the TIMP-I, LS mean CFB [5] was -35.7 ng/mL and the “TIMP-I, LS mean CFB difference from PBO” value [5] was -22.3 ng/mL. The “Hyaluronic acid, LS mean % CFB” value [6] was 11.8%, the “Hyaluronic acid, LS mean % CFB difference from PBO” value [6] was −13.0% and the “Hyaluronic acid, LS mean CFB” value [6] was -2.9 µg/L. For the same molecule, the “Hyaluronic acid, LS mean CFB difference from PBO” value [6] was -3.5 µg/L.
